Numbers after ± are expanded uncertainties.
Conditions: 101.33 kPa, Crystal, Vacuum adiabatic calorimetry

O=C([O-])[O-].[Pb+2] [lead(II) carbonate]
Conditions | molar entropy [J/K/mol]
5 K | 0.0215 ± 0.015
10 K | 0.2771 ± 0.018
15 K | 1.17 ± 0.027
20 K | 2.745 ± 0.038
25 K | 4.823 ± 0.048
30 K | 7.25 ± 0.082
35 K | 9.921 ± 0.09
40 K | 12.76 ± 0.1
45 K | 15.72 ± 0.11
50 K | 18.76 ± 0.12
55 K | 21.83 ± 0.13
60 K | 24.93 ± 0.14
65 K | 28.02 ± 0.14
70 K | 31.09 ± 0.15
75 K | 34.13 ± 0.16
80 K | 37.12 ± 0.17
85 K | 40.07 ± 0.18
90 K | 42.97 ± 0.36
95 K | 45.81 ± 0.37
100 K | 48.59 ± 0.37
110 K | 53.97 ± 0.38
120 K | 59.11 ± 0.39
130 K | 64.03 ± 0.4
140 K | 68.74 ± 0.4
150 K | 73.25 ± 0.41
160 K | 77.6 ± 0.42
170 K | 81.78 ± 0.42
180 K | 85.81 ± 0.43
190 K | 89.7 ± 0.43
200 K | 93.46 ± 0.44
210 K | 97.11 ± 0.45
220 K | 100.6 ± 0.5
230 K | 104.1 ± 0.5
240 K | 107.4 ± 0.5
250 K | 110.7 ± 0.5
260 K | 113.9 ± 0.5
270 K | 117 ± 0.5
273.15 K | 118 ± 0.5
280 K | 120.1 ± 0.5
290 K | 123 ± 0.5
298.15 K | 125.4 ± 0.7
300 K | 126 ± 0.5
310 K | 128.9 ± 0.5
320 K | 131.7 ± 0.5

From the NIST ThermoML archive (doi:10.1016/j.jct.2011.10.014)
